From PubChem BioAssay (NCI) come the findings set out here.

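Exposure lasted 48 hours, with cells grown in 96-well plates and compounds tested at five concentrations. TGI is the concentration that stops growth completely.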

Among the test systems are 786-0 renal; SK-MEL-28 melanoma; UACC-62 melanoma; CCRF-CEM leukemia; HL-60(TB) leukemia; NCI-H226 lung; T-47D breast; SK-OV-3 ovarian; TK-10 renal; MDA-N; COLO 205 colon.
Holding throughout (test): NCI tumour cell line growth inhibition, 48 h

Regarding `C=C1CC(C)(c2cccc(Nc3nc4ccccc4c4occc34)c2)OC1=O` (stereo unspecified), the TGI with 786-0 renal was 3.08 µM; with SK-MEL-28 melanoma, 26.8 µM; in the assay on UACC-62 melanoma, 2.43 µM; in the assay on CCRF-CEM leukemia, 5.08 µM; in the assay on HL-60(TB) leukemia it was 5.38 µM; in the assay on NCI-H226 lung, 4.54 µM. In addition, the TGI in the assay on T-47D breast is 20.5 µM; in the assay on SK-OV-3 ovarian it was 27.2 µM; with TK-10 renal, 9.99 µM; with MDA-N, 18.3 µM; in the assay on COLO 205 colon, 17.6 µM.
As for `COc1ccccc1NC(=O)CC(=O)NN`, the TGI in the assay with 786-0 renal, with SK-MEL-28 melanoma, in the assay with UACC-62 melanoma, in the assay on CCRF-CEM leukemia, in the assay with HL-60(TB) leukemia and in the assay on NCI-H226 lung was more than 100 µM throughout. Also, the TGI in the assay with T-47D breast, with SK-OV-3 ovarian, in the assay with TK-10 renal, in the assay on MDA-N and in the assay on COLO 205 colon was more than 100 µM in each case.
Consider `O=C(Nc1nn[nH]n1)c1nc(-c2ccccc2)cc(=O)[nH]1`, for which the TGI in the assay on 786-0 renal, in the assay with SK-MEL-28 melanoma, in the assay on UACC-62 melanoma, in the assay with CCRF-CEM leukemia, in the assay on HL-60(TB) leukemia and in the assay with NCI-H226 lung was more than 100 µM each time. Also, the TGI with T-47D breast, in the assay with SK-OV-3 ovarian, in the assay on TK-10 renal, in the assay with MDA-N and in the assay with COLO 205 colon was more than 100 µM throughout.
For `CC(CNC(N)=O)NC(N)=O` (stereo unspecified), the TGI in the assay with 786-0 renal, with SK-MEL-28 melanoma, with UACC-62 melanoma, in the assay on CCRF-CEM leukemia, with HL-60(TB) leukemia and with NCI-H226 lung was more than 100 µM each time. Also, the TGI in the assay on T-47D breast, in the assay with SK-OV-3 ovarian, with TK-10 renal, with MDA-N and in the assay with COLO 205 colon was more than 100 µM throughout.
Regarding `CC(C)CCOC(=O)NC(Nc1ccc(F)cc1)(C(F)(F)F)C(F)(F)F`, the TGI in the assay on 786-0 renal was more than 100 µM; in the assay with SK-MEL-28 melanoma, more than 100 µM; with UACC-62 melanoma, more than 100 µM; in the assay on CCRF-CEM leukemia it was 99.5 µM; in the assay on HL-60(TB) leukemia, more than 100 µM; in the assay with NCI-H226 lung, more than 100 µM. In addition, the TGI with T-47D breast is 78.5 µM; in the assay with SK-OV-3 ovarian it was more than 100 µM; in the assay with TK-10 renal it was more than 100 µM; in the assay on MDA-N, more than 100 µM; in the assay on COLO 205 colon, 42.1 µM.
Turning to `Cc1nc(-c2cc3ccccc3oc2=O)cs1`, the TGI with 786-0 renal, with SK-MEL-28 melanoma, in the assay on UACC-62 melanoma, in the assay with CCRF-CEM leukemia, in the assay on HL-60(TB) leukemia and in the assay on NCI-H226 lung was more than 100 µM in each case. Also, the TGI with T-47D breast, with SK-OV-3 ovarian, in the assay with TK-10 renal, in the assay with MDA-N and in the assay on COLO 205 colon was more than 100 µM each time.
As to `O=C(OCc1ccccc1)N1CCNCCNCCN(C(=O)OCc2ccccc2)CCNCC1`, the TGI was 28.4 µM with 786-0 renal; 29.1 µM in the assay with SK-MEL-28 melanoma; 31.7 µM with UACC-62 melanoma; 65.9 µM in the assay with CCRF-CEM leukemia; 21.7 µM with HL-60(TB) leukemia; more than 100 µM with NCI-H226 lung. Besides, the TGI was 41 µM in the assay with T-47D breast; more than 100 µM in the assay with SK-OV-3 ovarian; 67.2 µM in the assay on TK-10 renal; 31.3 µM in the assay with MDA-N; 26.8 µM in the assay with COLO 205 colon.
`CC(=O)OCC1OC(n2c(C)c(C)c(C)c(C#N)c2=S)C(OC(C)=O)C(OC(C)=O)C1OC(C)=O` (stereo unspecified): the TGI with 786-0 renal is 93.1 µM; in the assay with SK-MEL-28 melanoma it was more than 100 µM; in the assay with UACC-62 melanoma, more than 100 µM; in the assay on CCRF-CEM leukemia it was more than 100 µM; in the assay with HL-60(TB) leukemia, more than 100 µM; in the assay on NCI-H226 lung it was more than 100 µM. For the same molecule, the TGI in the assay with T-47D breast was more than 100 µM; with SK-OV-3 ovarian, 80.9 µM; in the assay on TK-10 renal, more than 100 µM; in the assay on MDA-N, more than 100 µM; in the assay on COLO 205 colon, more than 100 µM.
On to `COc1cc(Oc2nc3cc(F)c(F)cc3nc2-c2ccccc2)cc(OC)c1OC`, for which the TGI in the assay with 786-0 renal, in the assay with SK-MEL-28 melanoma, in the assay on UACC-62 melanoma, in the assay on CCRF-CEM leukemia, with HL-60(TB) leukemia and in the assay on NCI-H226 lung was more than 100 µM in each case. The TGI with T-47D breast, in the assay with SK-OV-3 ovarian, with TK-10 renal, in the assay with MDA-N and in the assay on COLO 205 colon was more than 100 µM in each case.
`CC(=O)C(C)(C)CCC(C)(C)C(C)=O`: the TGI in the assay with 786-0 renal, in the assay on SK-MEL-28 melanoma, with UACC-62 melanoma, with CCRF-CEM leukemia, in the assay on HL-60(TB) leukemia and in the assay on NCI-H226 lung was more than 100 µM throughout. Besides, the TGI with T-47D breast, in the assay with SK-OV-3 ovarian, with TK-10 renal, in the assay on MDA-N and with COLO 205 colon was more than 100 µM each time.
For `Cc1cc(S(=O)(=O)/N=C(/NN)Nc2ccc(Cl)cc2)c(S)cc1Cl`, the TGI amounted to 45.6 µM with 786-0 renal; 60.3 µM in the assay on SK-MEL-28 melanoma; 27.4 µM in the assay on UACC-62 melanoma; 94 µM in the assay on CCRF-CEM leukemia; 63.8 µM in the assay on HL-60(TB) leukemia; 43.3 µM in the assay with NCI-H226 lung. In addition, the TGI turned out to be 14.8 µM in the assay with T-47D breast; 49.5 µM in the assay on SK-OV-3 ovarian; 65.3 µM in the assay with TK-10 renal; 22.5 µM in the assay with MDA-N; 33 µM in the assay with COLO 205 colon.
